According to the supplement of paper PMC10949913:

Assays:
Conditions in all cases: 48 h
[1] = test system: NCI-H295R; experiment: AC50 viability; higher = less potent
Method in brief: (§1)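 In 1,536-well plates, 500–1,000 cells/well of three adrenocortical carcinoma cell lines in 5 µL medium received 23 nL of each library compound across 11 concentrations. At 48 h, CellTiter-Glo was incubated for 15 minutes at room temperature and luminescence measured. Per-plate normalisation used vehicle and empty-well controls, and only inhibitory or non-responding curve classes were kept when fitting concentration-response curves for AC50 and area under the curve.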

[2] = test system: CU-ACC1; experiment: AC50 viability; higher = less potent
Method in brief: as §1

[3] = test system: NCI-H295R; experiment: area under concentration-response curve (viability) (AUC (a.u.)); higher = less active
Method in brief: as §1

[4] = test system: CU-ACC1; experiment: as above
Method in brief: as §1

[5] = test system: CU-ACC2; experiment: as above
Method in brief: as §1

SMILES | AC50 viability [1] | AC50 viability [2] | area under concentration-response curve [3] | area under concentration-response curve [4] | area under concentration-response curve [5]
O=C(CCCCCCC(=O)Nc1cccnc1)NO | 13.2 µM | 9.34 µM | 533 | 489 | 589
CCc1cncnc1N1CCN(Cc2nc3cc(C(F)(F)F)ccc3[nH]2)CC1 | 20.9 µM | 20.9 µM | 502 | 438 | 590
FC(F)(F)c1ccc(C/N=c2\ccc(Cc3c[nH]c4ncccc34)c[nH]2)cc1 | 11.8 µM | 16.6 µM | 541 | 511 | 597
COC1(c2sc3c(N4CCOCC4)nc(-c4cnc(N)nc4)nc3c2C)COC1 | 0.372 µM | 0.525 µM | 322 | 287 | 374
COc1cc(OC)cc(N(CCNC(C)C)c2ccc3ncc(-c4cnn(C)c4)nc3c2)c1 | 18.6 µM | 23.5 µM | 526 | 499 | 603
FC(F)c1nc2ccccc2n1-c1nc(N2CCOCC2)nc(N2CCOCC2)n1 | 0.934 µM | 0.59 µM | 399 | 413 | 487
O=C([O-])C[C@H](O)C[C@H](O)/C=C/c1c(C2CC2)nc2ccccc2c1-c1ccc(F)cc1 | 10.5 µM | 4.68 µM | 464 | 394 | 478
O=[S+]([O-])(Nc1ccc(-c2cccnc2)c2cccnc12)c1cccc(C(F)(F)F)c1 | 4.17 µM | 4.68 µM | 486 | 456 | 595
CC(=O)Nc1cc(Oc2ccc3c(nc(Nc4ccc(F)cc4F)n3C)c2C)ccn1 | 11.8 µM | 18.6 µM | 482 | 484 | 544
CC1(C)OCCn2c1nc1c(N3CCOCC3)nc(-c3cnc(N)nc3)nc12 | 1.86 µM | 1.18 µM | 430 | 395 | 500
CC(C)(C)c1[nH]cnc1/C=c1\[nH]c(=O)/c(=C/c2ccccc2)[nH]c1=O | 0.0372 µM | 18.6 µM | 434 | 490 | 398
CC(C)(O)C[S+](=O)([O-])Nc1ccc2c(c1)CCN(C(=O)COc1cccnc1)C2 | 1.05 µM | 0.295 µM | 483 | 334 | 390
COc1ccc(C[C@@H](C)[C@@H](C)Cc2ccc(OC)c(OC)c2)cc1OC | 20.9 µM | 4.68 µM | 480 | 452 | 536
CC(C)C[C@H](NC(=O)[C@H](Cc1ccccc1)NC(=O)c1cnccn1)B(O)O | 0.0263 µM | 0.0372 µM | 345 | 290 | 327
COc1cc2ncnc(Nc3cccc(Cl)c3)c2cc1OC | 20.9 µM | 13.2 µM | 562 | 558 | 610
Fc1ccc(-c2csc3ncnc(NCc4ccc5c(c4)OCO5)c23)cc1 | 20.9 µM | 3.32 µM | 427 | 390 | 532
OC(c1cc(C(F)(F)F)nc2c(C(F)(F)F)cccc12)C1CCCCN1 (stereo not given) | 20.9 µM | 23.5 µM | 527 | 501 | 619
CC1=C(C)C\2=C(S1)[N]3C(=NN=C3[C@H](CC(=O)NC4=CC=C(OCCOCCOCCOCCNC5=CC=CC6=C5C(=O)N(C7CCC(=O)NC7=O)C6=O)C=C4)\N=C2C8=CC=C(Cl)C=C8)C (stereo not given in full) | 1.86 µM | 0.417 µM | 457 | 443 | 484
C[C@@H](Oc1ccc2[nH]nc(/C=C/c3cnn(CCO)c3)c2c1)c1c(Cl)cncc1Cl | 14.8 µM | 16.6 µM | 473 | 481 | 519
N=C(N)c1ccc(OCCCCCOc2ccc(C(=N)N)cc2)cc1 | 14.8 µM | 13.2 µM | 453 | 437 | 561
Cc1cccc(CN2CCN(C(c3ccccc3)c3ccc(Cl)cc3)CC2)c1 (stereo not given) | 16.6 µM | 13.2 µM | 495 | 422 | 534
O=C(NCCCNC(=O)c1cccnc1O)c1cc(-c2ccccc2)on1 | 18.6 µM | 20.9 µM | 443 | 481 | 574
